This assay deals with L1210 leukemia ip in BDF1 mice, survival T/C. Put plainly: NCI In Vivo Anticancer Drug Screen. Data for tumor model L1210 Leukemia (intraperitoneal) in B6D2F1 (BDF1) mice. The following applies: endpoint: mean survival time, higher = longer survival. A digest of the protocol: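 Transplantable tumor model; survival measured in treated vs vehicle control mice. Value = treated/control.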

[1] abbreviates: dose: 100.0 mg/kg/injection, schedule: Q01DX001 (ip), vehicle: saline.
Setting [2] is: dose: 100.0 mg/kg/injection, schedule: Q01DX009 (ip), vehicle: Klucel (hydroxypropylcellulose) (HPC).
[3] abbreviates: dose: 100.0 mg/kg/injection, schedule: Q04DX003 (ip), vehicle: Klucel (hydroxypropylcellulose) (HPC).
The mark [4] stands for this setting: dose: 200.0 mg/kg/injection, schedule: Q01DX001 (ip), vehicle: saline.
The mark [5] stands for this setting: dose: 200.0 mg/kg/injection, schedule: Q01DX009 (ip), vehicle: Klucel (hydroxypropylcellulose) (HPC).
The mark [6] stands for this setting: dose: 200.0 mg/kg/injection, schedule: Q04DX003 (ip), vehicle: Klucel (hydroxypropylcellulose) (HPC).
Setting [7] is: dose: 400.0 mg/kg/injection, schedule: Q01DX001 (ip), vehicle: saline.
Where [8] appears, read: dose: 400.0 mg/kg/injection, schedule: Q01DX009 (ip), vehicle: Klucel (hydroxypropylcellulose) (HPC).
The mark [9] stands for this setting: dose: 400.0 mg/kg/injection, schedule: Q04DX003 (ip), vehicle: Klucel (hydroxypropylcellulose) (HPC).
Where [10] appears, read: dose: 25.0 mg/kg/injection, schedule: Q04DX003 (ip), vehicle: saline with Tween-80.
Where [11] appears, read: dose: 50.0 mg/kg/injection, schedule: Q04DX003 (ip), vehicle: saline with Tween-80.
Setting [12] is: dose: 100.0 mg/kg/injection, schedule: Q04DX003 (ip), vehicle: saline with Tween-80.
Where [13] appears, read: dose: 100.0 mg/kg/injection, schedule: Q01DX001 (ip), vehicle: carboxymethylcellulose (CMC).
Where [14] appears, read: dose: 200.0 mg/kg/injection, schedule: Q01DX001 (ip), vehicle: carboxymethylcellulose (CMC).
The mark [15] stands for this setting: dose: 400.0 mg/kg/injection, schedule: Q01DX001 (ip), vehicle: carboxymethylcellulose (CMC).
Setting [16] is: dose: 50.0 mg/kg/injection, schedule: Q04DX003 (ip), vehicle: Klucel (hydroxypropylcellulose) (HPC).

Where “and” joins values, the source holds several entries; their conditions need not be identical. Equal values may be shown once. Toxic doses and inconclusive results are not listed.

In the case of `CC1(C)SC(C)(C)N(C=O)C1C(=O)O` (stereo unspecified), the T/C runs as follows: under setting [1], 94 % of control; under setting [2], 93 % of control; under setting [3], 105 % of control; under setting [4], 94 % of control; under setting [5], 94 % of control; under setting [6], 95 % of control. Further, the T/C by setting is: under setting [7], 110 % of control; under setting [8], 96 % of control; under setting [9], 97 % of control.

Take `CC1=C(Cl)C(=O)C(Cl)=C(Cl)C1=O`: the T/C (dose: 75.0 mg/kg/injection, schedule: Q01DX001 (ip), vehicle: saline) is 103 % of control.

`CCOc1ccc(/C=C(\NC(=O)c2ccccc2)C(=O)Nc2ccccc2)cc1OC`: the T/C was 100 % of control under setting [3], 87 % of control under setting [6] and 91 % of control under setting [9].

As for `CCC(=O)O[C@H]1CC[C@H]2[C@@H]3CCC4=CC(=O)CC[C@]4(C)[C@H]3CC[C@]12C`, the T/C (dose: 125.0 mg/kg/injection, schedule: Q01DX Z (sc), vehicle: steriod suspending solution) is 101 % of control and 106 % of control; the T/C (dose: 250.0 mg/kg/injection, schedule: Q01DX Z (sc), vehicle: steriod suspending solution) is 97 % of control and 112 % of control; the T/C (dose: 500.0 mg/kg/injection, schedule: Q01DX Z (sc), vehicle: steriod suspending solution) is 101 % of control and 103 % of control; the T/C (dose: 500.0 mg/kg/injection, schedule: Q01DX Z (sc), vehicle: water) is 95 % of control; the T/C (dose: 1000.0 mg/kg/injection, schedule: Q01DX Z (sc), vehicle: steriod suspending solution) was 100 % of control; the T/C (dose: 1000.0 mg/kg/injection, schedule: Q01DX Z (sc), vehicle: water) was 97 % of control.

With `Cc1ccc(Nc2ccc(O)c3c2C(=O)c2ccccc2C3=O)c(Br)c1`, the T/C is, setting by setting: (dose: 75.0 mg/kg/injection, schedule: Q01DX001 (ip), vehicle: steriod suspending solution) 96 % of control; (dose: 150.0 mg/kg/injection, schedule: Q01DX001 (ip), vehicle: steriod suspending solution) 100 % of control; (dose: 300.0 mg/kg/injection, schedule: Q01DX001 (ip), vehicle: steriod suspending solution) 93 % of control.

`NC(CNC(=O)OCc1ccccc1)=NCC(=O)O`: the T/C reads like this: under setting [10], 94 % of control; under setting [11], 89 % of control; under setting [12], 89 % of control and 92 % of control.

Take `CCN(CC)P(=O)(N1CC1C)N1CC1C` (stereo unspecified): the T/C is 111 % of control (dose: 4.4 mg/kg/injection, schedule: Q01DX015 (ip), vehicle: saline); 122 % of control (dose: 6.25 mg/kg/injection, schedule: Q01DX009 (ip), vehicle: saline); 105 % of control (dose: 6.6 mg/kg/injection, schedule: Q01DX015 (ip), vehicle: saline); 106 % of control (dose: 10.0 mg/kg/injection, schedule: Q01DX015 (ip), vehicle: saline); 112 % of control (dose: 14.0 mg/kg/injection, schedule: Q01DX009 (ip), vehicle: saline); 106 % of control (dose: 15.0 mg/kg/injection, schedule: Q01DX015 (ip), vehicle: saline). For the same molecule, the T/C runs as follows: (dose: 33.0 mg/kg/injection, schedule: Q01DX015 (ip), vehicle: saline) 109 % of control; (dose: 44.4 mg/kg/injection, schedule: Q01DX001 (ip), vehicle: saline) 108 % of control and 115 % of control; (dose: 50.0 mg/kg/injection, schedule: Q01DX015 (ip), vehicle: saline) 102 % of control; (dose: 66.6 mg/kg/injection, schedule: Q01DX001 (ip), vehicle: saline) 121 % of control; (dose: 75.0 mg/kg/injection, schedule: Q01DX009 (ip), vehicle: saline) 90 % of control; (dose: 150.0 mg/kg/injection, schedule: Q01DX001 (ip), vehicle: saline) 157 % of control.

On to `C/C(=N/N=C(N)N)c1cccnc1`, for which the T/C (dose: 15.0 mg/kg/injection, schedule: Q01DX Z (ip), vehicle: saline) was 106 % of control; the T/C (dose: 30.0 mg/kg/injection, schedule: Q01DX Z (ip), vehicle: saline) was 106 % of control; the T/C (dose: 60.0 mg/kg/injection, schedule: Q01DX Z (ip), vehicle: saline) was 108 % of control; the T/C (dose: 120.0 mg/kg/injection, schedule: Q01DX Z (ip), vehicle: saline) was 93 % of control.

`OCCN1CCNCC1`: the T/C is, setting by setting: under setting [1], 105 % of control; under setting [4], 105 % of control; under setting [7], 100 % of control.

Take `CCCCC(SC(CC)(C(N)=O)c1ccccc1)C(=O)O` (stereo unspecified): the T/C is 90 % of control under setting [13], 102 % of control under setting [14] and 90 % of control under setting [15].

For the molecule `CCCCOC(=O)c1ccc(OC(=O)Nc2ccc(OC)cc2Cl)cc1`, the T/C is, setting by setting: (dose: 100.0 mg/kg/injection, schedule: Q04DX002 (ip), vehicle: saline) 110 % of control; (dose: 200.0 mg/kg/injection, schedule: Q04DX002 (ip), vehicle: saline) 104 % of control; (dose: 400.0 mg/kg/injection, schedule: Q04DX002 (ip), vehicle: saline) 100 % of control.

Turning to `CCOC(=O)N1C(=O)NC(=O)C1c1ccc(OC)cc1` (stereo unspecified), the T/C was 91 % of control (dose: 50.0 mg/kg/injection, schedule: Q01DX001 (ip), vehicle: saline); 97 % of control under setting [1]; 100 % of control under setting [4]; 102 % of control under setting [7].

As for `CC(C)(Cc1ccc(F)cc1)NCc1ccccc1`, the T/C is 92 % of control (dose: 25.0 mg/kg/injection, schedule: Q01DX009 (ip), vehicle: Klucel (hydroxypropylcellulose) (HPC)); 101 % of control (dose: 25.0 mg/kg/injection, schedule: Q04DX003 (ip), vehicle: Klucel (hydroxypropylcellulose) (HPC)); 95 % of control (dose: 50.0 mg/kg/injection, schedule: Q01DX009 (ip), vehicle: Klucel (hydroxypropylcellulose) (HPC)); 103 % of control under setting [16]; 88 % of control and 92 % of control under setting [3].

Turning to `CSc1cc2c(cc1N)Cc1cc(F)ccc1-2`, the T/C reads like this: under setting [13], 98 % of control; under setting [14], 98 % of control; under setting [15], 95 % of control.

For `COc1ccccc1-n1c(C)nc2c1C(=O)c1ccccc1C2=O`, the T/C is, setting by setting: under setting [12], 96 % of control; (dose: 200.0 mg/kg/injection, schedule: Q04DX003 (ip), vehicle: saline with Tween-80) 93 % of control; (dose: 400.0 mg/kg/injection, schedule: Q04DX003 (ip), vehicle: saline with Tween-80) 96 % of control.

In the case of `FC1(F)SC2c3ccccc3CCC2C1(F)F` (stereo unspecified), the T/C is 96 % of control under setting [3], 95 % of control under setting [6] and 102 % of control under setting [9].

On to `IC1CCC(I)C2CCC1O2` (stereo unspecified) (tested in a mixture with another compound), for which the T/C under setting [16] is 106 % of control; the T/C under setting [2] was 106 % of control; the T/C under setting [3] was 101 % of control; the T/C under setting [5] is 104 % of control; the T/C under setting [6] was 98 % of control and 100 % of control; the T/C under setting [8] is 96 % of control. Further, the T/C under setting [9] was 100 % of control.

Consider `CCN(CC)CCCC#CCN1CCOCC1`, for which the T/C (dose: 50.0 mg/kg/injection, schedule: Q01DX009 (ip), vehicle: saline) was 101 % of control; the T/C (dose: 100.0 mg/kg/injection, schedule: Q01DX009 (ip), vehicle: saline) was 93 % of control; the T/C (dose: 100.0 mg/kg/injection, schedule: Q04DX003 (ip), vehicle: saline) is 103 % of control; the T/C (dose: 200.0 mg/kg/injection, schedule: Q01DX009 (ip), vehicle: saline) was 93 % of control; the T/C (dose: 200.0 mg/kg/injection, schedule: Q04DX003 (ip), vehicle: saline) is 109 % of control.

As to `N#CSc1nc2ccccc2s1`, the T/C by setting is: (dose: 6.0 mg/kg/injection, schedule: Q01DX001 (ip), vehicle: saline) 88 % of control; (dose: 12.0 mg/kg/injection, schedule: Q01DX001 (ip), vehicle: saline) 89 % of control; (dose: 25.0 mg/kg/injection, schedule: Q01DX001 (ip), vehicle: saline) 98 % of control; under setting [10], 92 % of control; under setting [11], 91 % of control; under setting [12], 96 % of control.

The values are drawn from PubChem BioAssay AID248 (DTP/NCI, 2004).
